Consider 2 compounds from publication PMC8162347, “Bolaamphiphilic Bis-Dehydropeptide Hydrogels as Potential Drug Release Systems” (Gels, 2021).

The subject of data set [1] is HaCaT cell line (human keratinocytes). Description: MTT assay, cell viability. Format: cell-based. The settings on record: 24 h. How it is done:
Human keratinocytes cell line HaCaT was from ATCC. Cells were cultured in DMEM supplemented with 10% FBS and 1% penicillin/streptomycin and were incubated at 37 °C, in a humidified atmosphere of 5% CO2.
Cells were seeded in 96-well plates (1.5 × 10^4 cells/well) and left to attach for 24 h. After this period, cells were incubated with different concentrations of the molecules under study for another 24 h. Then, cell viability was evaluated based on the ability of metabolically active cells to convert MTT to formazan over the course of 2 h. Absorbances were measured at 570 nm in a Multiskan GO plate reader (Thermo Fisher Scientific; Waltham, MA, USA) and results were expressed as percentage of the respective control and correspond to the mean ± standard error of the mean (SEM) of at least three independent experiments performed in triplicate. On the other hand, to assess the release of the stable cytosolic enzyme lactate dehydrogenase (LDH) into the media, 24 h after the incubation of the cells with the different concentrations of the molecules under study, 40 µL of culture media were removed to a 96-well plate. LDH released was determined using a CytoTox 96® assay kit (Promega; Madison, WI, USA) according to the manufacturer’s instructions. Then, 1% Triton X-100 was used as positive control to assure cell lysis (30 min). Absorbances were measured at 490 nm in a Multiskan GO plate reader (Thermo Fisher Scientific; Waltham, MA, USA), and results correspond to the fold-increase of absorbance in treated vs. untreated cells of three independent experiments performed in duplicate. Following assessment of the distribution of the results, ANOVA was performed using GraphPad Prism 8.0 (GraphPad Prism Inc., San Diego, CA, USA).

Data set [2] in a line: Gelation study, pH trigger with GdL, vial inversion test. The data set is classed as physicochemical. The settings on record: for pH (gelation conditions): pH of hydrogel at cgc after GDL 0.4 wt %; for Critical Gelation Concentration (cgc): vial inversion test, water, NaOH (1 M) to circa pH 10, then GDL 0.4 wt %. The text has this: Nonetheless, dimeric dehydropeptides 1–4 could be dissolved in water upon pH adjustment to pH 10–11, which was achieved by addition of NaOH solution (1 M). Gel formation was triggered by a slow pH drop. The pH change was obtained by the aqueous hydrolysis of added D-glucono-δ-lactone (GdL) to D-gluconic acid. […] The CGCs of hydrogels 1–3 were qualitatively assessed by varying the peptide concentrations and conducting vial inversion tests.
Dehydrodipeptides 1, 2 and 3 were weighed into sample vials, water was added, and the suspension was adjusted under magnetic stirring to circa pH 10 (pH meter) by the addition of NaOH (1 M), and D-glucono-δ-lactone (GDL) was added. The solutions were left standing overnight at room temperature (20–25 °C).

Data set [3] in a line: Oscillatory rheology of hydrogels. Format: physicochemical. Conditions: for k (growth rate constant) / kn (nucleation rate constant): fit of Equation (1) to gelation kinetics; for dG: fit of Equation (1), increment in storage modulus during the kinetics; for Initial time lag before the significant rise in G′: gelation kinetics, 0.001% strain; for Initial time lag before the significant rise in G′ / G′ / G″: 25 °C; for Initial time lag before the significant rise in G′ / Thermal stability of gel (variation of G′): 1 Hz; for Thermal stability of gel (variation of G′): heating–cooling cycle between 25 and 40 °C, 1 °C/min, strain 0.005%; for G′ / G″: hydrogel at structural equilibrium, frequency sweep 100 to 0.1 Hz, strain 0.01%. The text has this: This is due to the rather small deformation used during this test to allow gel formation without disturbing the build-up of the network structure. In contrast to this, see the data for compounds 1 and 2. A two-step model is often used to describe the nucleation (with rate constant kn) and growth (with rate constant k) of aggregates of peptides:(1) f(t) = G0 + dGρ(e^(1+ρ)kt − 1)/1 + ρe^(1+ρ)kt where ρ = kn/k , G0 is the initial storage modulus of the aggregate-free solution, and dG is the increment in the storage modulus during the kinetics.
After reaching the structural equilibrium established by the reading of constant shear moduli G′ and G″ with time, a frequency-sweep from 100 down to 0.1 Hz was performed with a strain of 0.01% (Figure S6 in Supplementary Information). For hydrogels obtained from compounds 1, 2, and 3, G′ is essentially constant over the frequency domain tested, and it is 10 times larger than G″. Overall, all mechanical spectra are qualitatively similar and reminiscent of the rheological signature of gels, as G′ is higher than G″ for hydrogels of compounds 1–3 (Table 3). ′
After the thermal cycle, gels were submitted to a strain sweep, where the frequency was maintained at 1 Hz. The hydrogels of compounds 2 and 1 break up more easily than hydrogel of compound 3 (Figure 7). […] In summary, and connecting the rheological data to the structural information inferred from both STEM and CD, coil conformers of compound 2 rapidly self-assemble to build a rubber-like (entropic) network, which brings most of the gel elasticity. This is in contrast to the elastically weaker gels of compound 3, which are predominantly made from the networking of fibrils likely formed from beta conformers. Gels of compound 1 show intermediate elasticity, originating from the slower networking of a mixture of coil and beta sheet conformers.
The viscoelastic characterization of hydrogels was performed with a stress-controlled rotational rheometer Anton Paar MCR300 (Anton Paar GmbH, Graz, Austria). Gel-forming solutions were loaded in the shearing geometry (a Couette cell with 1 mL volume and 0.5 mm gap) at 25 °C. The liquid sample was pre-sheared at a shear rate of 5 s^−1 during one minute to homogenize the sample in the shearing geometry. Then, the gelation kinetics was monitored during 10 h by applying a small amplitude (0.001%) oscillatory shear at 1 Hz and recording both storage (G′) and loss (G″) moduli at each second. Then, mechanical spectra were recorded, and gels were submitted to a heating–cooling cycle between 25 and 40 °C at a rate of +/−1 °C/min. Finally, gels were submitted to a strain sweep.

[4] abbreviates: standing overnight at room temperature (20–25 °C).

On to `O=C(O)/C(=C/c1ccccc1)NC(=O)[C@H](Cc1ccc(O)cc1)NC(=O)c1ccc(C(=O)N[C@@H](Cc2ccc(O)cc2)C(=O)N/C(=C\c2ccccc2)C(=O)O)cc1` [Compound 2], for which the “Effect on HaCaT viability” value in data set [1] is reported as “mostly devoid of any effect”. Also, the “Loss of mitochondrial activity” value in data set [1] (the two highest concentrations) is given as “around 10%”. In addition, the “pH (gelation conditions)” value in data set [2] is 4.15. For the same compound, the “Critical Gelation Concentration (cgc)” value in data set [2] (overnight at room temperature) was found to be 5.1 mM. In addition, the “Critical Gelation Concentration (cgc)” value in data set [2] (setting [4]) was 0.4 wt %. Moreover, the G0 in data set [3] (fit of Equation (1) (Saitô) to gelation kinetics, initial storage modulus) came out at 0 ± 25 Pa. Moreover, in data set [3], the “k (growth rate constant)” value worked out at 1.84 ± 0.04 h⁻¹, the “kn (nucleation rate constant)” value came out at 0.02 ± 0.001 h⁻¹, the dG is given as 5722 ± 39 Pa and the “Initial time lag before the significant rise in G′” value is listed as 4600 s. Also, in data set [3], the “Thermal stability of gel (variation of G′)” value is recorded as “shows a thermal hysteresis”, the “G′” value is reported as 4.5 × 10^3 Pa and the “G″” value was 1.4 × 10^2 Pa.
On to `O=C(O)/C(=C/c1ccccc1)NC(=O)[C@H](Cc1ccccc1)NC(=O)c1ccc(C(=O)N[C@@H](Cc2ccccc2)C(=O)N/C(=C\c2ccccc2)C(=O)O)cc1` [Compound 1], for which the “Apparent loss of cell viability (mitochondrial activity)” value in data set [1] (most concentrations tested, independent of concentration) is recorded as “around 20%”. In data set [2], the “pH (gelation conditions)” value came to 5.10. Besides, the “Critical Gelation Concentration (cgc)” value in data set [2] (overnight at room temperature) is 4.0 mM. Also, the “Critical Gelation Concentration (cgc)” value in data set [2] (setting [4]) was determined as 0.3 wt %. Further, in data set [3], the “k (growth rate constant)” value amounted to 0.18 ± 0.10 h⁻¹, the “kn (nucleation rate constant)” value came to 0.40 ± 0.04 h⁻¹, the dG is listed as 2392 ± 66 Pa and the “Initial time lag before the significant rise in G′” value is 2300 s. In data set [3], the “Thermal stability of gel (variation of G′)” value is recorded as “not thermally sensitive”, the “G′” value is on record as 2.5 × 10^3 Pa and the “G″” value is given as 6.5 × 10^1 Pa.
